Results as given in US20050079232A1, “Composition for promotion of bone growth and maintenance of bone health” (priority 2001, published 2005).

Columns and labels:
[1] = test system: BMP-2; assay: Endogenous BMP-2 mRNA expression in hPOB-tert cells by RT-PCR; type: cell-based, human; details: 0.5 μg/ml, positive control
Protocol: The plants found positive for BMP-2 induction in example 1 were further tested in a human periosteal/preosteoblast cell line, hPOB-tert for their ability to induce the endogenous expression of BMP-2. This test in osteoblast cells confirmed the results shown in example 1.
[…] Total RNA was extracted with TRIzol Reagent (Gibco). 10 μg RNA were reverse transcribed using the 1st Strand cDNA Synthesis Kit (Boehringer). BMP-2 cDNA sequences were amplified for 35 cycles at an annealing temperature of 55° C. using specific oligonucleotide primers (5′: […]; 3′: […]). PCR products were separated by agarose gel electrophoresis and detected by ethidium bromide staining. Quantification was performed using NIH Image Software and normalizing results with Actin as house-keeping gene.

[2] = test system: BMP-2 promoter; assay: BMP-2 luciferase assay (BMP-2 gene reporter assay, bone formation); type: cell-based; details: 10^−6M; result in words
Protocol: BMP-2 luciferase assay—The activity of the extracts was determined using 2T3 cells containing the BMP-2 promoter operatively linked to the luciferase gene. An increase in luciferase activity in cell lysates reflects an increase in BMP-2 promoter activity. The extracts were assayed at an initial dilution of 100 μg/ml with ½ dilutions down to 0.2 μg/ml. BMP-2 promoter activity was measured by measuring the luciferase activity in cell extracts.

Row | Compound | induction of BMP-2 [1] | stimulation of BMP-2 (promoter activity) [2]
1 | CC[C@H](C)C(=O)O[C@H]1C[C@@H](C)C=C2C=C[C@H](C)[C@H](CC[C@@H]3C[C@@H](O)CC(=O)O3)[C@H]21 [lovastatin] | 2.5 fold | –
2 | O=c1c(-c2ccc(O)cc2)coc2cc(O)cc(O)c12 [genistein] | – | stimulated BMP-2
3 | O=c1c(-c2ccc(O)cc2)coc2cc(O)ccc12 [daidzein] | – | stimulated BMP-2
